Test results from patent publication EP0556962A1, “Small peptide and pseudopeptide amides inhibiting the proliferation of small-cell and epithelial-cell lung cancer cells” (RICHTER GEDEON VEGYESZETI GYAR R.T., priority 1992, dated 1993).
Where a SMILES comes first, the peptide text is derived from it. [ ]: non-standard residue; d: D form. The star is where a group is joined. X2 = CC(C)C[C@@H](CN[C@@H](CC(C)C)C(N)=O)N*; X1 = O=C(Cc1ccc(O)cc1)*

Test system: BN receptors on the Swiss 3T3 mouse fibroblast cell line
Test: Test 1: displacement of [¹²⁵I-Tyr⁴]-BN from BN receptors on Swiss 3T3 cells
Format: binding
Details: 1 nmol [¹²⁵I-Tyr⁴]-BN, 4 °C, 3 hours
Protocol: The biological investigation of the new compounds of the invention was carried out in four tests. The BN-antagonizing effect of the compounds in question was determined in Test 1, based on measuring the displacement of the labelled [¹²⁵I-Tyr⁴]-BN from the BN receptors being present on the Swiss 3T3 mouse fibroblast cells. Test 2 and Test 3 were used to study the inhibitory effect of the compounds of the invention on the proliferation and propagation of NCI-H69 small-cell lung cancer cells. The inhibitory effect of the compounds of the invention on non-small-cell lung cancer cells and epithelial-cell lung cancer cells was investigated in Test 4.
Study of the binding of target compounds to BN receptors on the Swiss 3T3 mouse fibroblast cell line
Swiss 3T3 mouse fibroblast cells were grown on tissue-cultivating plates containing 24 holes in a D-MEM culture medium containing FCS of 10 % until a confluent and resting state (3x10⁵ cell/hole). The cells were washed 3 times with 0.5 ml of D-MEM of pH 7.4 (containing 0.2 % of BSA and 24 mmol of HEPES, and cooled to 4 °C), i.e. incubation mixture, each. […] At the end of the reaction the cells were washed twice with the incubation mixture and then 3 times with PBS (pH = 7.4).
The washings were carried out with 750 µl volumes of the ice-cold liquids each. The cells were solubilized by adding 750 µl of 0.5 M sodium hydroxide solution, carried over into test-tubes by pipette and the radio-activity bound to the cells was measured. The grade of aspecific binding was determined in the presence of a high concentration (10⁻⁶ mol/l) of cold [Tyr⁴]-BN. The amount of the specifically bound, labelled hormone was expressed as the percentage of the maximum binding, i.e. the specific binding in the absence of the compounds to be tested, as shown in Table 1.

Row | Structure (SMILES) | Displacement as percentage of control net binding (1.18 µmol/l compound) | Displacement as percentage of control net binding (2.36 µmol/l compound) | Displacement as percentage of control net binding (4.71 µmol/l compound) | Displacement as percentage of control net binding (9.42 µmol/l compound) | Displacement as percentage of control net binding (18.8 µmol/l compound) | Displacement as percentage of control net binding (37.6 µmol/l compound) | Displacement as percentage of control net binding (75 µmol/l compound)
1 | CC(C)C[C@@H](CN[C@@H](CC(C)C)C(N)=O)NC(=O)[C@@H](Cc1c[nH]c2ccccc12)NC(=O)[C@H](Cc1ccccc1)NC(=O)[C@@H](Cc1c[nH]c2ccccc12)NC(=O)Cc1ccc(O)cc1 [(1)] | 105% | 96% | 99% | 103% | 106% | 107% | 105%
2 | CC(C)C[C@H](NC(=O)[C@H](CC(C)C)NC(=O)[C@@H](Cc1c[nH]c2ccccc12)NC(=O)[C@H](Cc1ccccc1)NC(=O)[C@@H](Cc1c[nH]c2ccccc12)NC(=O)Cc1ccc(O)cc1)C(N)=O [(I), reference compound] (X1-[dW]F[dW]LL-NH2) | 108% | 98% | 83% | 55% | 33% | 18% | 23%
3 | CC(C)C[C@@H](CN[C@@H](CC(C)C)C(N)=O)NC(=O)[C@@H](Cc1c[nH]c2ccccc12)NC(=O)[C@H](Cc1ccccc1)NC(=O)[C@@H](Cc1c[nH]c2ccccc12)NC(=O)[C@H](N)Cc1ccc(O)cc1 [(4)] (H-[dY][dW]F[dW]-X2) | 85% | 88% | 79% | 72% | 61% | 52% | 45%
